Measurements taken from ChEMBL document CHEMBL1127820 (J Med Chem, 1994).

Experiments:
[1] = biological target: Sodium-dependent dopamine transporter (Rattus norvegicus, UniProt P23977); assay: Inhibition of [3H]WIN-35428 binding to dopamine (DA) transporter
[2] = biological target: Norepinephrine transporter (Rattus norvegicus, UniProt Q9WTR4); assay: Inhibition of [3H]nisoxetine binding to norepinephrine (NE) transporter
[3] = biological target: Sodium-dependent serotonin transporter (Rattus norvegicus, UniProt P31652); assay: Inhibition of [3H]paroxetine binding to 5-hydroxytryptamine (5-HT) transporter
Sodium-dependent serotonin transporter, sequence (P31652 whole entry): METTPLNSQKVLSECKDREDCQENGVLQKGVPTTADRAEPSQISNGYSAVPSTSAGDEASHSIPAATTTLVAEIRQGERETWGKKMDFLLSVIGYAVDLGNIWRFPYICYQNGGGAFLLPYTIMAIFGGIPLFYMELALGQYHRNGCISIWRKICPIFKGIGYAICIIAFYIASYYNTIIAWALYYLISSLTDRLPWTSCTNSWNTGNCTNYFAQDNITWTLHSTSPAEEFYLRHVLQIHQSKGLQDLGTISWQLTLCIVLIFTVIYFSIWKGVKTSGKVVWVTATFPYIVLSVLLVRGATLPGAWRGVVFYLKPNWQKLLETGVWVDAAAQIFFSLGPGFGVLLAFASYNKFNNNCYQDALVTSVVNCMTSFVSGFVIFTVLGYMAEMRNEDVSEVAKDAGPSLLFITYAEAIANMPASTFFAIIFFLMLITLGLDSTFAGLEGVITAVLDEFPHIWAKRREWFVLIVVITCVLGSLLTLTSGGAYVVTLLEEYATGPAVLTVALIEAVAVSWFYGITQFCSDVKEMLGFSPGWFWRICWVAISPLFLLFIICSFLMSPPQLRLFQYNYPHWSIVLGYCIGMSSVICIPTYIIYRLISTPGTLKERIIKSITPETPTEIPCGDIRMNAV

Sodium-dependent dopamine transporter, sequence (P23977 whole entry): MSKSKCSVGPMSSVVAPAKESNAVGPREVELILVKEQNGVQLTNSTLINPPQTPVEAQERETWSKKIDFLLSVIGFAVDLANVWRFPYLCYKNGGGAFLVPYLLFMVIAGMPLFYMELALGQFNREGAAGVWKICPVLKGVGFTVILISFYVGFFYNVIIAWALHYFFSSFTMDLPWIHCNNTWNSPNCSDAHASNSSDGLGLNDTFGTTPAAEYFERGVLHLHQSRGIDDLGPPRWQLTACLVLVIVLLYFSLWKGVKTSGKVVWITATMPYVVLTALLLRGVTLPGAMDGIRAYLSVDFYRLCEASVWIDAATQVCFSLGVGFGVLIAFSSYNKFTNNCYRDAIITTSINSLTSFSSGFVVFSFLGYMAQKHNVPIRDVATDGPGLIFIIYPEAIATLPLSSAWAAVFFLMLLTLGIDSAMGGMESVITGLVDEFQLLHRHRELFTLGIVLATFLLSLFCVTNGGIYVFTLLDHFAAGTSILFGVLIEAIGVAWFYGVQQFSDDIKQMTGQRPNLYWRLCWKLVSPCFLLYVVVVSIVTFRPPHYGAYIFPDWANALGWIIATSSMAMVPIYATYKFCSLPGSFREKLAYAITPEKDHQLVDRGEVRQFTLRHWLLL
Norepinephrine transporter, sequence (Q9WTR4 whole entry): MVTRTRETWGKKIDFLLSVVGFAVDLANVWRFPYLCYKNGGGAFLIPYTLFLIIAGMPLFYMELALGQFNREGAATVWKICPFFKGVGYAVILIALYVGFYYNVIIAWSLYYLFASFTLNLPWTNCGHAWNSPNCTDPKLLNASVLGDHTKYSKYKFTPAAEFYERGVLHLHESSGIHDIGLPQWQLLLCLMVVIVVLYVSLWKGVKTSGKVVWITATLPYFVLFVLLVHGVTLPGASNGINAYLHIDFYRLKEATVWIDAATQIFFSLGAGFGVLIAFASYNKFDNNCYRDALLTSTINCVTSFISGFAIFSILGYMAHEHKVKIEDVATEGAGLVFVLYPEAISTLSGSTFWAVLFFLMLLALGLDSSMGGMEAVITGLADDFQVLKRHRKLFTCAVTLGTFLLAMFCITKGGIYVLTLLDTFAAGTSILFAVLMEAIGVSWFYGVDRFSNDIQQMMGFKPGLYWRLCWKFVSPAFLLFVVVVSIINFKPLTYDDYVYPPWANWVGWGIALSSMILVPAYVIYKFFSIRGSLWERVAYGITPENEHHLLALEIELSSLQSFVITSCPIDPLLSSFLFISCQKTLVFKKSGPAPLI

Structure (SMILES) | IC50 [1] [nM] | IC50 [2] [nM] | IC50 [3] [nM]
CCc1ccc([C@H]2C[C@H]3CCC(N3)[C@H]2C(=O)OC)cc1 | 49.9 | 122 | 8.13
COC(=O)[C@H]1[C@@H](c2ccc(F)cc2)C[C@H]2CC[C@H]1N2C |  | 834 | 
CC(C)OC(=O)[C@@H]1C2CC[C@H](C[C@@H]1c1ccc(I)cc1)N2 | 1.06 | 132 | 3.59
COC(=O)C1C2CCC(C[C@@H]1c1ccc(Cl)cc1)N2 (stereo not given in full) | 0.62 | 5.45 | 4.13
COC(=O)C1C2CCC(C[C@@H]1c1ccccc1)N2 (stereo not given in full) | 30.8 | 84.5 | 156
COC(=O)[C@@H]1C2CC[C@H](C[C@@H]1c1ccc(I)cc1)N2 | 0.69 | 7.54 | 0.36
COC(=O)C1C2CCC(C[C@@H]1c1ccc(F)cc1)N2 (stereo not given in full) | 4.39 | 18.8 | 68.6
COC(=O)C1C2CCC(C[C@@H]1OC(=O)c1ccccc1)N2 (stereo not given in full) | 206 | 139 | 127
CC(C)OC(=O)C1C2CC[C@H](C[C@@H]1c1ccc(I)cc1)N2C (stereo not given in full) | 0.43 | 285 | 66.8
CCc1ccc([C@H]2C[C@H]3CCC(C2C(=O)OC)N3C)cc1 (stereo not given in full) | 55 | 3910 | 28.4
COC(=O)C1C2CC[C@H](C[C@@H]1c1ccc(I)cc1)N2C (stereo not given in full) |  | 36 | 4.21
